Common to all, as to type: nucleic-acid assay
In assay [1] the test system is DNA. The assay is described as follows: Stabilization of dsBE12 oligonucleotide (unknown origin) assessed as drug-DNA adduct formation at 5 to 50 uM incubated for 4 hrs in presence of formaldehyde using [gamma-32P]ATP by phosphorimaging analysis relative to control.
The subject of assay [2] is DNA. The experiment in a line: Stabilization of [32P]-labelled dsDNA (unknown origin) assessed as drug-DNA adduct formation by measuring adduct half life incubated for 12 hrs in presence of formaldehyde by phosphorimaging analysis.
For assay [3], the system named is DNA. The assay is described as follows: Stabilization of [32P]-labelled dsDNA (unknown origin) assessed as drug-DNA adduct formation at 5 uM in presence of formaldehyde incubated for 12 hrs by phosphorimaging analysis relative to control.
Assay [4] concerns DNA. The assay is described as follows: Stabilization of dsBE15 oligonucleotide (unknown origin) assessed as drug-DNA adduct formation at 5 to 50 uM incubated for 4 hrs in presence of formaldehyde using [gamma-32P]ATP by phosphorimaging analysis.
Assay [5] concerns DNA. The assay is described as follows: Stabilization of [32P]-labelled dsDNA (unknown origin) assessed as drug-DNA adduct formation by measuring adduct half life at 10 uM in presence of formaldehyde by phosphorimaging analysis.
Assay [6] concerns DNA. The assay is described as follows: Stabilization of [32P]-labelled dsDNA (unknown origin) assessed as drug-DNA adduct formation at 1 uM to 24 uM incubated for 12 hrs in presence of formaldehyde by phosphorimaging analysis.
Assay [7] relates to DNA. The experiment in a line: Stabilization of dsBE17 oligonucleotide (unknown origin) assessed as drug-DNA adduct formation at 5 to 50 uM incubated for 4 hrs in presence of formaldehyde using [gamma-32P]ATP by phosphorimaging analysis.
Assay [8] has as its system DNA. The experiment in a line: Binding affinity to dsBE45 oligonucleotide (unknown origin) assessed as drug-DNA adduct formation at 5 to 50 uM incubated for 4 hrs in presence of formaldehyde using [gamma-32P]ATP by phosphorimaging analysis.
Assay [9] concerns DNA. The assay is described as follows: Stabilization of dsBE67 oligonucleotide (unknown origin) assessed as drug-DNA adduct formation at 5 to 50 uM incubated for 4 hrs in presence of formaldehyde using [gamma-32P]ATP by phosphorimaging analysis relative to control.
The test system of assay [10] is DNA. The assay is described as follows: Stabilization of [32P]-labelled dsDNA (unknown origin) assessed as drug-DNA adduct formation by measuring residual dsDNA level at 6 uM measured after 10 days in presence of formaldehyde by phosphorimaging analysis relative to control.
In assay [11] the test system is DNA. The experiment in a line: Induction of transcriptional blockage of 512 bp DNA fragment (unknown origin) assessed as loss of full length transcript comprising 379 nucleotide at 10 uM incubated for 4 hrs in presence of formaldehyde using [alpha-32P]UTP by phosphorimaging analysis relative to control.
The test system of assay [12] is DNA. The experiment in a line: Stabilization of [32P]-labelled dsDNA (unknown origin) assessed as drug-DNA adduct formation by measuring residual dsDNA level at 2.5 uM measured after 16 hrs in presence of formaldehyde by phosphorimaging analysis relative to control.
In assay [13] the test system is DNA. The experiment in a line: Stabilization of [32P]-labelled dsDNA (unknown origin) assessed as drug-DNA adduct formation incubated for 12 hrs in presence of formaldehyde by phosphorimaging analysis.
Assay [14] concerns DNA. The assay is described as follows: Induction of transcriptional blockage of 512 bp DNA fragment (unknown origin) assessed as loss of full length transcript comprising 379 nucleotide at 5 uM incubated for 4 hrs in presence of formaldehyde using [alpha-32P]UTP by phosphorimaging analysis.
In assay [15] the test system is DNA. The experiment in a line: Stabilization of [32P]-labelled dsDNA (unknown origin) assessed as drug-DNA adduct formation by measuring increase in retardation of dsDNA migration on gel at >3 uM incubated for 12 hrs in presence of formaldehyde by phosphorimaging analysis.
The test system of assay [16] is DNA. The experiment in a line: Induction of transcriptional blockage of 512 bp DNA fragment (unknown origin) at 2.5 uM incubated for 4 hrs in presence of formaldehyde using [alpha-32P]UTP by phosphorimaging analysis.
Assay [17] deals with DNA. The assay is described as follows: Stabilization of dsBE15 oligonucleotide (unknown origin) assessed as drug-DNA adduct formation at 50 uM incubated for 4 hrs in presence of formaldehyde using [gamma-32P]ATP by phosphorimaging analysis relative to control.
Assay [18] relates to DNA. The experiment in a line: Stabilization of [32P]-labelled dsDNA (unknown origin) assessed as drug-DNA adduct formation by measuring residual dsDNA level at 6 uM measured after 16 hrs in presence of formaldehyde by phosphorimaging analysis relative to control.
Assay [19] concerns DNA. The experiment in a line: Induction of transcriptional blockage of 512 bp DNA fragment (unknown origin) at 2.5 to 10 uM incubated for 4 hrs in presence of formaldehyde using [alpha-32P]UTP by phosphorimaging analysis.

SMILES strings stand for the structures. The source made the active and inactive calls. No cut-off for these calls is given here.

In the case of `O=C1c2c(O)ccc(O)c2C(=O)c2c(NCCNCCO)ccc(NCCNCCO)c21`, the result in the assay on DNA [1] was Active. Also, in the assay on DNA [2], the T1/2 turned out to be 0.42 h. Also, the Activity in the assay with DNA [3] was determined as 5%.

As to `NCCCCCNc1ccc(F)c2c1C(=O)c1c(O)ccc(O)c1C2=O`, the outcome in the assay with DNA [4], in the assay on DNA [1] and in the assay on DNA [8] was inactive. Besides, the T1/2 in the assay on DNA [2] amounted to 24 h; in the assay with DNA [5], 27 h. For the same compound, the Activity in the assay with DNA [3] is 50%; in the assay with DNA [9] it was 10%. The outcome in the assay on DNA [6] and in the assay on DNA [7] was Active.

As for `NCCCCCNc1ccc(NCCCCCN)c2c1C(=O)c1c(O)ccc(O)c1C2=O`, the outcome in the assay with DNA [4] and with DNA [8] was inactive. Moreover, the Activity with DNA [1] was found to be 20%; in the assay on DNA [3], 40%; in the assay on DNA [9], 30%; in the assay on DNA [10], 17%. The T1/2 with DNA [2] worked out at 53 h. In addition, the result in the assay on DNA [6] and with DNA [7] was Active.

For `NCCNCCNc1ccc(NCCNCCN)c2c1C(=O)c1c(O)ccc(O)c1C2=O`, the Activity was 100% with DNA [11]; less than 80% in the assay with DNA [1]; 20% with DNA [12]; 90 to 100% with DNA [3]; “Dose-dependent effect” with DNA [13]; more than 75% in the assay with DNA [17]. Further, the T1/2 with DNA [2] is 12.5 h. Further, the result with DNA [14], with DNA [7], with DNA [15], in the assay with DNA [8], in the assay with DNA [9] and in the assay on DNA [16] was Active.

As for `NCCCCCNc1ccc(F)c2c1C(=O)c1ccncc1C2=O`, the Activity with DNA [3] is less than 1%. Moreover, the result in the assay on DNA [6] was inactive.

In the case of `NCCNc1ccc(NCCN)c2c1C(=O)c1c(O)ccc(O)c1C2=O`, the result with DNA [4] and in the assay on DNA [8] was inactive. In addition, the Activity is 30% with DNA [1], 30% in the assay on DNA [3] and less than 55% in the assay with DNA [9]. Also, the T1/2 in the assay with DNA [2] was 2.3 h. For the same compound, the result in the assay on DNA [6] and in the assay on DNA [7] was Active.

`NCCCCCNc1ccc(NCCCCCN)c2c1C(=O)c1ccncc1C2=O`: the Activity with DNA [3] is less than 2%. Also, the result with DNA [6] was inactive.

`NCCNCCNc1ccc(F)c2c1C(=O)c1c(O)ccc(O)c1C2=O`: the outcome in the assay with DNA [4], with DNA [1], in the assay with DNA [7], with DNA [19] and in the assay on DNA [9] was Active. The T1/2 in the assay on DNA [2] came out at 10 h. Besides, the Activity in the assay on DNA [3] was 25%; with DNA [18], 20%; with DNA [13], “Dose-dependent effect”.
